Measurements as given in ChEMBL document CHEMBL5380833 (J Med Chem, 2023).

What was measured:
[1] = target: T1, Protein cereblon/Tyrosine-protein kinase ITK/TSK (Homo sapiens, UniProt Q08881+Q96SW2); assay: PROTAC activity at CRBN/ITK in human Jurkat cells assessed as maximum degradation at 0.01 to 10 uM by Western blot analysis relative to control; type: cell-based; conditions: dose 0.01-10 µM
Target sequence in this assay (Q08881 whole entry, looked up): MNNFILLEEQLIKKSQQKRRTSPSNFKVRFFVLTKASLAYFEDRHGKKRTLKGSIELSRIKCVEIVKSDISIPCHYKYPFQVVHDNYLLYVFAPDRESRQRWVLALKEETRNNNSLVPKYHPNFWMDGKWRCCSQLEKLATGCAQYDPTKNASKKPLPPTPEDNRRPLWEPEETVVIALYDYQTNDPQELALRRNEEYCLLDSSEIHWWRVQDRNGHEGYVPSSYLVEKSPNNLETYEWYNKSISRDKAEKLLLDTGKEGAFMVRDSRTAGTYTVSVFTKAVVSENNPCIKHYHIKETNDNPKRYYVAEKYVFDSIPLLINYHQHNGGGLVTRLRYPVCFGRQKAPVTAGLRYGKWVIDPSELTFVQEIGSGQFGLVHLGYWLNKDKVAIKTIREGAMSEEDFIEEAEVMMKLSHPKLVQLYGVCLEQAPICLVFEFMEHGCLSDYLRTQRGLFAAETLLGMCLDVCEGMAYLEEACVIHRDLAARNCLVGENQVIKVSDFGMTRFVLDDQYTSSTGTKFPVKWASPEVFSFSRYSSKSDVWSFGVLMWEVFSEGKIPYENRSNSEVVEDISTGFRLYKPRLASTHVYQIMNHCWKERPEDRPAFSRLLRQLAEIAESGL
Target sequence in this assay (Q96SW2 whole entry, looked up): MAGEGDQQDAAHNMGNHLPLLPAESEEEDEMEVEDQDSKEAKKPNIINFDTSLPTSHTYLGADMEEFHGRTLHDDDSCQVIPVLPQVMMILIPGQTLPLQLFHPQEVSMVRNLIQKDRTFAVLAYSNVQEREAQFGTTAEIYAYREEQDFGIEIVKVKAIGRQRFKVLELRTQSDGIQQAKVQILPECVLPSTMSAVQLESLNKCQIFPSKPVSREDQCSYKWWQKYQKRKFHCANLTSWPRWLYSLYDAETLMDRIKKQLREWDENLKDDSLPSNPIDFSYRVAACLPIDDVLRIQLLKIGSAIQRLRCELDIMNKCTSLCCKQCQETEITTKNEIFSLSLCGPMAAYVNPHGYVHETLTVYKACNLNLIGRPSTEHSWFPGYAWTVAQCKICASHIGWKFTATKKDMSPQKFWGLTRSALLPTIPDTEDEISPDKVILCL

[2] = target: T1, Protein cereblon/Tyrosine-protein kinase ITK/TSK; assay: PROTAC activity at CRBN/ITK in human Jurkat cells assessed as induction of ITK degradation by Western blot analysis; type: cell-based
Target sequence in this assay (Q08881 whole entry): as the sequence (Q08881 whole entry, looked up) above
Target sequence in this assay (Q96SW2 whole entry): as the sequence (Q96SW2 whole entry, looked up) above

Compound	Emax [1]	EC50 ([2]; read-out: EC50)	EC50 ([2]; jurkat)
CN(CCOCCOCC(=O)Nc1cccc2c1C(=O)N(C1CCC(=O)NC1=O)C2=O)CC[C@@H](c1ccccc1)n1cc(NC(=O)c2n[nH]c3c2CCC(C)(C)C3)cn1 (stereo not given in full)	75%	220 nM	
CC1(C)CCc2c(C(=O)Nc3cnn([C@@H](CCN4CCN(CC5CCN(c6ccc7c(c6)C(=O)N(C6CCC(=O)NC6=O)C7=O)CC5)CC4)c4ccccc4)c3)n[nH]c2C1 (stereo not given in full)	90%	29.3 nM	
CN(CCOCCOCCOCCOCC(=O)Nc1cccc2c1C(=O)N(C1CCC(=O)NC1=O)C2=O)CC[C@@H](c1ccccc1)n1cc(NC(=O)c2n[nH]c3c2CCC(C)(C)C3)cn1 (stereo not given in full)	75%	286 nM	
CN(CCCCCC(=O)Nc1ccc2c(c1)C(=O)N(C1CCC(=O)N(C)C1=O)C2=O)CC[C@@H](c1ccccc1)n1cc(NC(=O)c2n[nH]c3c2CCC(C)(C)C3)cn1 (stereo not given in full)			Not Active
CC1(C)CCc2c(C(=O)Nc3cnn([C@@H](CCN4CCN(CC5CN(c6ccc7c(c6)C(=O)N(C6CCC(=O)NC6=O)C7=O)C5)CC4)c4ccccc4)c3)n[nH]c2C1 (stereo not given in full)	85%	10 nM	
CC1(C)CCc2c(C(=O)Nc3cnn([C@@H](CCN4CCN(CCC5CN(c6ccc7c(c6)C(=O)N(C6CCC(=O)NC6=O)C7=O)C5)CC4)c4ccccc4)c3)n[nH]c2C1 (stereo not given in full)	90%	142 nM	
CN(CCOCCOCCOCC(=O)Nc1ccc2c(c1)C(=O)N(C1CCC(=O)NC1=O)C2=O)CC[C@@H](c1ccccc1)n1cc(NC(=O)c2n[nH]c3c2CCC(C)(C)C3)cn1 (stereo not given in full)	93%	94.1 nM	
CN(CCOCCOCCOCCNC(=O)CNc1cccc2c1C(=O)N(C1CCC(=O)NC1=O)C2=O)CC[C@@H](c1ccccc1)n1cc(NC(=O)c2n[nH]c3c2CCC(C)(C)C3)cn1 (stereo not given in full)	93%	62.2 nM	
CN(CCCCC(=O)Nc1ccc2c(c1)C(=O)N(C1CCC(=O)NC1=O)C2=O)CC[C@@H](c1ccccc1)n1cc(NC(=O)c2n[nH]c3c2CCC(C)(C)C3)cn1 (stereo not given in full)	90%	5.3 nM	
CN(CCOCCOCC(=O)Nc1ccc2c(c1)C(=O)N(C1CCC(=O)NC1=O)C2=O)CC[C@@H](c1ccccc1)n1cc(NC(=O)c2n[nH]c3c2CCC(C)(C)C3)cn1 (stereo not given in full)	95%	26.7 nM	
CN(CCCCCCCCCCC(=O)Nc1ccc2c(c1)C(=O)N(C1CCC(=O)NC1=O)C2=O)CC[C@@H](c1ccccc1)n1cc(NC(=O)c2n[nH]c3c2CCC(C)(C)C3)cn1 (stereo not given in full)	82%	75.4 nM	
CN(CCCCCCC(=O)Nc1ccc2c(c1)C(=O)N(C1CCC(=O)NC1=O)C2=O)CC[C@@H](c1ccccc1)n1cc(NC(=O)c2n[nH]c3c2CCC(C)(C)C3)cn1 (stereo not given in full)	90%	9 nM	
CN(CCOCCC(=O)NC1=CCC2C(=O)N(C3CCC(=O)NC3=O)C(=O)C2=C1)CC[C@@H](c1ccccc1)n1cc(NC(=O)c2n[nH]c3c2CCC(C)(C)C3)cn1 (stereo not given in full)	97%	15.6 nM	
CN(CCOCCNC(=O)CNc1cccc2c1C(=O)N(C1CCC(=O)NC1=O)C2=O)CC[C@@H](c1ccccc1)n1cc(NC(=O)c2n[nH]c3c2CCC(C)(C)C3)cn1 (stereo not given in full)	99%	32.7 nM	
CN(CCOCCOCCOCC(=O)Nc1cccc2c1C(=O)N(C1CCC(=O)NC1=O)C2=O)CC[C@@H](c1ccccc1)n1cc(NC(=O)c2n[nH]c3c2CCC(C)(C)C3)cn1 (stereo not given in full)	75%	353 nM	
CN(CCOCCOCCNC(=O)CNc1cccc2c1C(=O)N(C1CCC(=O)NC1=O)C2=O)CC[C@@H](c1ccccc1)n1cc(NC(=O)c2n[nH]c3c2CCC(C)(C)C3)cn1 (stereo not given in full)	95%	32.7 nM	
CN(CCCCCCCCC(=O)Nc1ccc2c(c1)C(=O)N(C1CCC(=O)NC1=O)C2=O)CC[C@@H](c1ccccc1)n1cc(NC(=O)c2n[nH]c3c2CCC(C)(C)C3)cn1 (stereo not given in full)	93%	5.5 nM	
CN(CCOCCOCCOCCOCC(=O)Nc1ccc2c(c1)C(=O)N(C1CCC(=O)NC1=O)C2=O)CC[C@@H](c1ccccc1)n1cc(NC(=O)c2n[nH]c3c2CCC(C)(C)C3)cn1 (stereo not given in full)	92%	106 nM	
